Laboratory results taken from paper PMC9697930 (International Journal of Molecular Sciences, 2022).
Like-named read-outs stand apart in the source and are kept apart here.

How the values were obtained:
A431-parent = assay: MTT proliferation / drug combination assay; type: cell-based; conditions: Homo sapiens, 48 h
Method: (§1) The viability MTT assay was employed in several experimental sets, including induction studies, comparative viability assays, and drug combinations. First, 1.3 × 10^4 (MDCKII sublines), 1.2 × 10^4 (A431 sublines), 1.5 × 10^4 (MCF-7), and 1.0 × 10^4 (primary NSCLC explants) cells were seeded in 96-well plates. After seeding, cells were left to refresh in incubator for 24 h. Secondly, the medium was removed, and the serial dilutions of the drugs or drug combinations were added to the cells. Next to these variants, a medium with 40% DMSO and vehicle-containing media were tested as nonviable and unaffected viability controls, respectively. After an additional 48 h of incubation, the cells were washed with 1 × PBS and then treated with 1 mg/mL MTT solution in Opti-MEM. Subsequently, cells were incubated for 60 min under standard conditions. After MTT treatment, generated formazan crystals were solubilized with DMSO for 10 min. Wavelengths of 570 nm (formazan) and 690 nm (background) were used for absorbance measurements using a microplate reader Infinite 200 Pro NanoQuant (Tecan, Männedorf, Switzerland).
(§2) In vitro cell lines (MDCKII and A431) and primary NSCLC explants were seeded (see densities above) in 96-well plates and incubated for 24 h. […] Combined cells were incubated with the tested compounds for 48 h, and subsequently, MTT assay was performed to assess cell viability as described above. Besides IC50-shift analysis, CompuSyn 3.0.1 software (ComboSyn Inc., Paramus, NJ, USA) was used for the additional analysis of obtained data. This software works with the algorithms of the combination index (CI) method of Chou–Talalay, which is frequently used for the accurate quantification of drug combinations’ outcomes. According to the CI method principle, the combination effects were separated into three categories, including synergistic (CI < 0.9), additive (CI between 0.9–1.1), or antagonistic (CI > 1.1) ones.

MDCKII-parent = assay: MTT proliferation / drug combination assay; type: cell-based, Canine; conditions: Canis lupus familiaris, 48 h
Method: as §1, §2

A431-ABCG2 = assay: MTT proliferation / drug combination assay; type: cell-based; conditions: Homo sapiens, 48 h; read-out: IC50
Method: as §1, §2

[1] = MTT proliferation / drug combination assay; type: cell-based, Canine; conditions: dog, MDCKII-ABCG2 cells; read-out: IC50
Method: as §1, §2

| Structure (SMILES) | IC50 (A431-parent) [nM] | IC50 (MDCKII-parent) [nM] | IC50 (A431-parent; read-out: IC50) [nM] | IC50 (A431-ABCG2) [nM] | IC50 at 48 h [1] [nM] | IC50 (MDCKII-parent; read-out: IC50) [nM] |
| --- | --- | --- | --- | --- | --- | --- |
| COc1cccc2c1C(=O)c1c(O)c3c(c(O)c1C2=O)C[C@@](O)(C(C)=O)C[C@@H]3O[C@H]1C[C@H](N)[C@H](O)[C@H](C)O1 [daunorubicin] | 1110 | 1000 |  |  |  |  |
| O=C1c2c(O)ccc(O)c2C(=O)c2c(NCCNCCO)ccc(NCCNCCO)c21 [mitoxantrone] |  |  | 880 | 10000 | 12100 | 1480 |
